For assay [1], the target named is T1, human FLT3 protein (FLT3 (WT)) (Homo sapiens, UniProt P36888).
T1 construct: human FLT3 protein (intracellular region, 564 to 993 aa); GST; purchased Carna Biosciences; host or cells: baculovirus expression system
T1 sequence (P36888 564-993): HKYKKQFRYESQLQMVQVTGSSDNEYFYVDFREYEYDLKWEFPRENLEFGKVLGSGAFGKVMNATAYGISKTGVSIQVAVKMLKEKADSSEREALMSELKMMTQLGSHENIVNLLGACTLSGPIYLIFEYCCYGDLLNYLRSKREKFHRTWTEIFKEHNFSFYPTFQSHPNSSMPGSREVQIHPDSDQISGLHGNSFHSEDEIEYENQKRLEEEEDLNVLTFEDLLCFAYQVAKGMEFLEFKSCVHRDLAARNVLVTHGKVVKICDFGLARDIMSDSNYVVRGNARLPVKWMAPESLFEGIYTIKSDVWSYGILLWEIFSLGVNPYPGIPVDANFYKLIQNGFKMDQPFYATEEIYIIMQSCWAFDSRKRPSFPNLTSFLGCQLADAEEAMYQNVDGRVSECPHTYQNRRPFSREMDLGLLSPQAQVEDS
The assay is described as follows: FLT3 inhibition test (FLT3 enzyme inhibition, time-resolved fluorescence of substrate peptide phosphorylation). It is filed as biochemical. Particulars: GST-fused human FLT3 (564 to 993 aa), ATP 50 μM; read-out: FLT3 (WT) enzyme inhibition activity. An outline of the steps: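 Wild-type human FLT3 (1.2 μg) pre-incubated with compound 15 min at 25° C in 100 mM HEPES pH 7.5, 10 mM MgCl2, 25 mM NaCl, 1 mM DTT. Reaction started with substrate peptide and ATP (final 50 μM), run 30 min at 25° C; phosphorylation read by time-resolved fluorescence.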

For another assay, the system named is MV4-11 cells. The assay is described as follows: Leukemia cell proliferation inhibition test (ATPlite), MV4-11. Particulars: Homo sapiens, MV4-11, 72 h, MV4-11, 72 hours culture, ATPlite; GI50 per method; read-out: MV4-11 cell proliferation inhibition effect. It is filed as cell-based. The method, boiled down: (§1)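 Molm-13 or MV4-11 cells at 10,000 cells/well in RPMI with 10% FBS and pen/strep were exposed to serially diluted compound for 72 h at 37 °C, 5% CO2. Total cellular ATP was read by luciferase luminescence. GI50 was taken relative to 0.1% DMSO control, from duplicates by sigmoid non-linear regression.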
On the technique in general: In ATP-based viability assays light output follows the ATP content of the culture.

A further assay concerns Molm-13 cells. The experiment in a line: Leukemia cell proliferation inhibition test (ATPlite), Molm-13. It is filed as cell-based. To be noted: Homo sapiens, MOLM-13, 72 h, Molm-13, 72 hours culture, ATPlite; GI50 per method; read-out: MOLM13 cell proliferation inhibition effect. An outline of the steps:
as §1

SMILES strings stand for the structures.

Results on 14 compounds are retold here after patent publication US9145415B2, “Nitrogen-containing heterocyclic compound or salt thereof” (FUJIFILM Corporation, priority 2012, dated 2015).

For `CCCNc1nc(Nc2ccc(C#N)cc2)ncc1C#CCCC(=O)NC(C)(C)CN(C)C(=O)/C=C/CN(C)C` [Compound 8-16], the IC50 in assay [1] fell in the range of 10 to 100 nM; in the assay on MV4-11 cells it was 10 to 100 nM; in the assay with Molm-13 cells, 100 to 1000 nM.
For the compound `CNc1nc(Nc2ccc(F)cc2)ncc1C#CCCCNC(=O)CN(C)C(=O)/C=C/CN(C)C` [Compound 7-89], the IC50 (in assay [1]; in the assay on MV4-11 cells; with Molm-13 cells) was less than 10 nM each time.
With `CCCNc1nc(Nc2ccc(C(N)=O)cc2)ncc1C(=O)NC1CCCC(NC(=O)CN(C)C(=O)/C=C/CN(C)C)C1` (stereo not drawn) [Compound 3-4, (E)-2-((4-Carbamoylphenyl)amino)-N-(3-(2-(4-(dimethylamino)-N-methyl-2-butenamido)actamido)cyclohexyl)-4-(propylamino)pyrimidine-5-carboxamide], the IC50 (in assay [1]; in the assay on MV4-11 cells; in the assay with Molm-13 cells) was less than 10 nM each time.
For `CN(C)C/C=C/C(=O)N(C)CC(=O)NCCCC#Cc1cnc(Nc2ccc(F)cc2)nc1N1CCOCC1` [Compound 10-17], the results for the IC50 (in assay [1]; with MV4-11 cells; in the assay on Molm-13 cells) were less than 10 nM, less than 10 nM and 10 to 100 nM, respectively.
Consider `CCCNc1nc(Nc2ccnc(OC)c2)ncc1C#CCCCNC(=O)[C@@H]1C[C@H](O)CN1C(=O)/C=C/CN(C)C` [Compound 9-36], for which the IC50 (in assay [1]; in the assay on MV4-11 cells; in the assay on Molm-13 cells) was less than 10 nM throughout.
Regarding `CCCNc1nc(Nc2cccc(C#N)c2)ncc1C#C[C@H]1C[C@@H](NC(=O)[C@H](C)N(C)C(=O)/C=C/CN(C)C)C1` [Compound 13-17], the IC50 (in assay [1]; with MV4-11 cells; in the assay on Molm-13 cells) was less than 10 nM each time.
Turning to `C=CC(=O)NCC(=O)Nc1cc(NC(=O)c2cnc(NCCc3ccncc3)nc2NCCC)c(C)cc1C` [Compound 2-6], the IC50 (in assay [1]; in the assay on MV4-11 cells; in the assay on Molm-13 cells) was 10 to 100 nM each time.
For the compound `CCCCCN(CC(=O)NCCCC#Cc1cnc(Nc2ccc(C#N)cc2)nc1NCCC)C(=O)/C=C/CN(C)C` [Compound 7-71], the IC50 (in assay [1]; in the assay with MV4-11 cells; in the assay with Molm-13 cells) was less than 10 nM in each case.
As for `CCCNc1nc(Nc2ccc(C#N)cc2)ncc1C#CCCCNC(=O)[C@H]1CCCCN1C(=O)/C=C/CN(C)C` [Compound 7-38], the IC50 in assay [1] is less than 10 nM; in the assay on MV4-11 cells, 10 to 100 nM; in the assay on Molm-13 cells, 10 to 100 nM.
Regarding `CCCNc1nc(Nc2ccc(C(N)=O)cc2)ncc1C#Cc1ccc2nc(CNC(=O)/C=C/CN(C)C)[nH]c2c1` [Compound 8-9], the IC50 in assay [1] is less than 10 nM; in the assay with MV4-11 cells it was 10 to 100 nM; in the assay on Molm-13 cells it was 10 to 100 nM.
As for `C=CC(=O)NCC(=O)NC(CC)CCNC(=O)c1cnc(NCCc2ccncc2)nc1NCCC` (stereo not drawn) [Compound 1-6], the IC50 is less than 10 nM in assay [1], 10 to 100 nM in the assay with MV4-11 cells and 10 to 100 nM in the assay on Molm-13 cells.
On to `CCCNc1nc(Nc2cccc(F)c2)ncc1C#CCCCNC(=O)[C@@H]1C[C@H](OC)CN1C(=O)/C=C/CN(C)C` [Compound 7-59], for which the IC50 (in assay [1]; with MV4-11 cells; in the assay on Molm-13 cells) was less than 10 nM in each case.
As for `CCNc1nc(Nc2ccc3[nH]ncc3c2)ncc1C#CCCCNC(=O)[C@H](C)N(C)C(=O)/C=C/CN(C)C` [Compound 10-61], the IC50 (in assay [1]; in the assay on MV4-11 cells; in the assay on Molm-13 cells) was less than 10 nM each time.
Turning to `CNc1nc(Nc2ccc(F)cc2)ncc1C#CCCCNC(=O)[C@@H]1C[C@@H](F)CN1C(=O)/C=C/CN(C)C` [Compound 7-81, (2S,4R)-1-((E)-4-(Dimethylamino)-2-butenoyl)-4-fluoro-N-(5-(2-((4-fluorophenyl)amino)-4-(methylamino)pyrimidin-5-yl)-4-pentyn-1-yl)pyrrolidine-2-carboxamide], the IC50 (in assay [1]; in the assay with MV4-11 cells; with Molm-13 cells) was less than 10 nM each time.
